Results reported in the supplement of paper PMC10307832.

Key:
Assay in all cases: relative viability (nuclei count vs DMSO), 5 days (fraction); higher = more cells survive
[1] = compound: CCCS(=O)(=O)Nc1ccc(F)c(C(=O)c2c[nH]c3ncc(-c4ccc(Cl)cc4)cc23)c1F [Vemurafenib] + COc1cc2c(Oc3ccc(NC(=O)C4(C(=O)Nc5ccc(F)cc5)CC4)cc3F)ccnc2cc1OCCCN1CCOCC1 [Foretinib] (partner 0.25 µM)
In short: (§1)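 The day after seeding in 1536-well plates, lung cancer cell lines were treated by pin tool with a single drug, or with a fixed anchor-drug dose together with five library-drug doses (not always all listed) in √10 steps. After 5 days, a combined fix-and-stain solution (final 0.05% Triton X-100, 1% formaldehyde, 1 ug/ml Hoechst) was added. Nuclei counted on 4× images gave relative viability as treated counts over vehicle counts, reported as the median of duplicate plates.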

[2] = compound: COc1cccc2cc(-c3nc([C@H]4CC[C@H](C(=O)O)CC4)n4ncnc(N)c34)[nH]c12 [OSI-027] + CCNC(=O)c1noc(-c2cc(C(C)C)c(O)cc2O)c1-c1ccc(CN2CCOCC2)cc1 [Luminespib] (partner 0.01 µM)
In short: as §1

[3] = compound: COc1cccc2cc(-c3nc([C@H]4CC[C@H](C(=O)O)CC4)n4ncnc(N)c34)[nH]c12 [OSI-027] + Cc1nc(Nc2ncc(C(=O)Nc3c(C)cccc3Cl)s2)cc(N2CCN(CCO)CC2)n1 [Dasatinib] (partner 0.075 µM)
In short: as §1

[4] = compound: Cc1nc(NC(=O)N2CCC[C@H]2C(N)=O)sc1-c1ccnc(C(C)(C)C(F)(F)F)c1 [Alpelisib] + C[C@@H](Oc1cc(-c2cnn(C3CCNCC3)c2)cnc1N)c1c(Cl)ccc(F)c1Cl [Crizotinib] (partner 1 µM)
In short: as §1

Row | Cell Line | relative viability ([1]; first compound 0.03162 µM) | relative viability ([1]; first compound 0.1 µM) | relative viability ([1]; first compound 0.3162 µM) | relative viability ([1]; first compound 1 µM) | relative viability ([2]; first compound 0.01 µM) | relative viability ([2]; first compound 0.03162 µM) | relative viability ([2]; first compound 0.1 µM) | relative viability ([2]; first compound 0.3162 µM) | relative viability ([2]; first compound 1 µM) | relative viability ([3]; first compound 0.01 µM) | relative viability ([3]; first compound 0.03162 µM) | relative viability ([3]; first compound 0.1 µM) | relative viability ([3]; first compound 0.3162 µM) | relative viability ([3]; first compound 1 µM) | relative viability ([4]; first compound 0.04 µM) | relative viability ([4]; first compound 0.1265 µM) | relative viability ([4]; first compound 0.4 µM) | relative viability ([4]; first compound 1.265 µM) | relative viability ([4]; first compound 4 µM)
1 | A-427 | 1.01 | 0.951 | 1.06 | 1.18 | 0.92 | 0.891 | 0.811 | 0.61 | 0.505 | 0.679 | 0.663 | 0.573 | 0.391 | 0.3 | 0.775 | 0.835 | 1.11 | 0.773 | 0.653
2 | NCI-H1703 | 0.358 | 0.307 | 0.329 | 0.374 | – | – | – | – | – | – | – | – | – | – | 0.465 | 0.576 | 0.539 | 0.277 | 0.35
3 | HCC-366 | 0.988 | 0.922 | 1.01 | 1 | – | – | – | – | – | 0.679 | 0.708 | 0.61 | 0.477 | 0.395 | 0.488 | 0.459 | 0.585 | 0.215 | 0.0795
4 | NCI-H661 | 1.06 | 0.956 | 1.08 | 0.965 | 0.894 | 0.977 | 0.846 | 0.917 | 0.409 | 0.664 | 0.989 | 0.708 | 0.602 | 0.383 | 0.968 | 0.96 | 1.07 | 1.01 | 0.937
5 | NCI-H2126 | 1.13 | 0.696 | 1.31 | 1.09 | 0.93 | 1.01 | 0.85 | 0.575 | 0.547 | 0.562 | 0.56 | 0.504 | 0.374 | 0.45 | 1.02 | 0.957 | 0.992 | 0.88 | 0.735
6 | LCLC-97TM1 | 0.974 | 0.854 | 0.985 | 0.971 | 0.846 | 0.688 | 0.776 | 0.378 | 0.211 | 0.91 | 0.907 | 0.849 | 0.746 | 0.573 | 0.343 | 0.295 | 0.427 | 0.208 | 0.157
7 | NCI-H2405 | 1 | 1.03 | – | 1.03 | 0.678 | 0.647 | 0.559 | 0.479 | 0.443 | 0.2 | 0.204 | 0.185 | 0.209 | 0.178 | 0.858 | 0.772 | 0.889 | 0.662 | 0.735
8 | COR-L 105 | 1.04 | – | – | 0.978 | 0.58 | 0.707 | 0.862 | 0.526 | 0.472 | 0.322 | 0.328 | 0.299 | 0.236 | 0.243 | 0.697 | 1 | 0.879 | 0.691 | 0.695
9 | BEN | 0.534 | 0.575 | – | 0.621 | 0.327 | 0.467 | 0.307 | 0.187 | 0.221 | 0.304 | 0.567 | 0.273 | 0.218 | 0.169 | 0.956 | 0.95 | 1.04 | 0.884 | 0.866
10 | HCC-827 | 0.911 | – | 1.12 | 1.04 | 0.775 | 0.75 | 0.51 | 0.337 | 0.171 | 0.298 | 0.295 | 0.326 | 0.226 | 0.222 | 0.927 | 0.884 | 0.949 | 0.91 | 0.88
11 | NCI-H3122 | 0.992 | 0.957 | 1.02 | 1.07 | 0.0994 | 0.0843 | 0.054 | 0.0869 | 0.0772 | 0.831 | 0.844 | 0.923 | 0.631 | 0.391 | 0.27 | 0.308 | 0.227 | 0.196 | 0.2
12 | NCI-H1299 | 1.05 | 1.06 | 1 | 1.09 | – | – | – | – | – | – | – | – | – | – | 0.935 | 0.943 | 1 | 0.996 | 0.936
13 | LK-2 | 1.37 | 0.913 | 1.09 | 0.915 | 0.172 | 0.193 | 0.159 | 0.173 | 0.137 | 0.343 | 0.266 | 0.24 | 0.203 | 0.225 | 0.284 | 0.188 | 0.215 | 0.233 | 0.252
14 | HCC-15 | 0.941 | 1.09 | – | 1.05 | 0.347 | 0.501 | 0.397 | 0.264 | 0.339 | 0.551 | 0.656 | 0.624 | 0.486 | 0.366 | 0.814 | 0.798 | 0.901 | 0.668 | 0.651
15 | IA-LM | 1.16 | 1.26 | 1.08 | 0.981 | – | – | – | – | – | – | – | – | – | – | 0.829 | 0.643 | 1.23 | 0.718 | 0.818
16 | NCI-H1755 | 0.882 | 0.889 | 0.891 | 0.832 | 0.577 | 0.533 | 0.369 | 0.382 | 0.416 | 0.392 | 0.458 | 0.39 | 0.42 | 0.229 | 0.828 | 0.819 | 0.966 | 0.801 | 0.578
17 | EMC-BAC-2 | 1.06 | 0.862 | 0.832 | 1.03 | 1.24 | 1.17 | 0.95 | 0.864 | 0.379 | 0.296 | 0.311 | 0.308 | 0.249 | 0.225 | 0.752 | 0.778 | 0.753 | 0.608 | 0.496
18 | NCI-H838 | 0.964 | 1.05 | – | 1.07 | 0.281 | 0.338 | 0.336 | 0.192 | 0.195 | 0.283 | 0.276 | 0.224 | 0.227 | 0.239 | 0.774 | 0.768 | 0.932 | 0.73 | 0.772
19 | NCI-H1650 | – | 0.649 | – | 1.19 | 0.208 | 0.234 | 0.208 | 0.214 | 0.219 | 0.313 | 0.347 | 0.255 | 0.279 | 0.229 | 1.01 | 0.941 | 1.02 | 0.847 | 0.956
